Drawing on PubChem BioAssay AID493092 (Sanford-Burnham Center for Chemical Genomics, 2011), this text covers IC50 for 91 compounds.

Structures are written as SMILES. Activity calls are given as the source filed them.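 How the source made its calls: active means averaged IC50 for reducing per-cell lipid droplet stain intensity under a set limit; inactive means the rest.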

The IC50 is the point on the concentration scale where inhibition reaches its midpoint.

The experiment concerns AML12 mouse hepatocytes, BODIPY lipid droplet imaging. The experiment in a line: inhibitors of hepatocyte lipid droplet formation, SAR follow-up, imaging, AML12 mouse hepatocytes, BODIPY staining (AID 493092). As to conditions: cells fed 100 µM oleate overnight.

With `CCOc1ccc(CCNC(=O)c2cc3sc(Cl)cc3n2C)cc1OCC`, the IC50 was 92.2 nM.
As for `Cc1sc(NC(=O)Cc2ccc3c(c2)OCO3)nc1-c1ccc2c(c1)CCN2C(=O)c1ccccc1F`, the figure is > 32000 nM (inactive).
Turning to `Cc1cc(N2CCOCC2)n2ncc(-c3ccccc3)c2n1`, the IC50 was 3070 nM.
For `CN(Cc1ccc2c(c1)OCO2)C(=O)CNC(=O)Cc1cccc2ccccc12`, the IC50 was > 32000 nM (inactive).
For the compound `CCOc1ccc(CCNC(=O)C2CC=CCC2C(=O)OC(C)C)cc1OCC` (stereo unspecified), the IC50 is 267 nM.
Consider `CCOc1ccc(NC(=O)CCC(=O)Nc2cc(OC)c(NC(=O)c3cccs3)cc2OC)cc1`, for which the IC50 was 276 nM.
As for `CCOc1ccc(C(C)NC(=O)Cc2ccccc2F)cc1OCC` (stereo unspecified), the figure is 840 nM; as for `COc1ccccc1NS(=O)(=O)c1ccc(NN=Cc2c(C)nn(-c3ccccc3)c2N2CCCC2)c([N+](=O)[O-])c1`, 887 nM; as for `CCCc1ccc(-c2csc(NC(=O)Cc3cccs3)n2)cc1`, 510 nM.
For `CCOc1ccc(CCNC(=O)CCC(=O)N2CCOc3ccccc32)cc1OCC` the value was 161 nM; for `Cc1cc(N2CCOCC2)n2nc(C)c(-c3ccc(Cl)cc3)c2n1`, 158 nM.
As for `CCOC(=O)c1cc(CC)sc1NC(=O)C1CC(=O)NN1Cc1ccccc1` (stereo unspecified), the IC50 was 338 nM.
For `O=C(NCc1ccc2c(c1)OCO2)c1cc(-c2ccccc2)c(N2CCOCC2)s1`, the IC50 is 412 nM.
With `Cc1ccc(C(=O)OC(C)C(=O)Nc2nc(-c3cccc([N+](=O)[O-])c3)cs2)cc1` (stereo unspecified), the IC50 is 17000 nM (inactive).
For `CCOc1cc2c(cc1OCC)CN(C(=O)CNC(=O)c1ccc3ccccc3c1)CC2` the value was 311 nM; for `COc1ccc(CCNC(=O)Nc2ccc(C(C)=O)cc2)cc1OC`, > 32000 nM (inactive).
With `COc1ccc(CCNC(=O)Nc2cc(F)c(F)cc2Cl)cc1OC`, the IC50 was > 32000 nM (inactive).
As for `Cc1cc(C(=O)OC(C)C(=O)Nc2nc(-c3ccccc3)cs2)c(C)o1` (stereo unspecified), the figure is 428 nM.
As for `CCOc1ccc(CN(C)C(=O)CNC(=O)c2ccc(Br)o2)cc1OC`, the IC50 was 1830 nM.
As for `COc1ccccc1NC(=O)C1CCN(C(=O)NCc2ccccc2)CC1`, the figure is 3230 nM.
Turning to `Cc1ccc(-c2c(C)nn3c(N4CCOCC4)cc(C)nc23)cc1`, the IC50 was 246 nM.
With `CCOc1ccccc1NC(=O)CCCNC(=O)Cn1cnc2sc(C)c(C)c2c1=O`, the IC50 is 8670 nM (inactive).
As to `Cc1cc(N2CCOCC2)n2ncc(-c3ccc(F)cc3)c2n1`, the concentration for half-maximal inhibition (IC50) was 2120 nM.
As for `COc1ccc(C(=O)OCC(=O)NC(C)CCc2ccccc2)cc1OC` (stereo unspecified), the IC50 was 8730 nM (inactive).
For `CCOc1ccccc1Nc1nnc(SC(C)C(=O)Nc2nc(-c3ccccc3)cs2)s1` (stereo unspecified) the value was 1160 nM; for `CC(OC(=O)c1ccc2c(c1)OCO2)C(=O)Nc1nc(-c2cccc([N+](=O)[O-])c2)cs1` (stereo unspecified), > 32000 nM (inactive); for `O=C(CSCC(=O)N1CCCc2ccccc21)Nc1nc(-c2ccccc2)cs1`, 11800 nM (inactive).
With `CCCc1cc(N2CCOCC2)n2nc(C)c(-c3ccccc3)c2n1`, the IC50 is 168 nM.
Turning to `COc1cccc(CN(C)C(=O)CNC(=O)Cc2cccc3ccccc23)c1OC`, the IC50 was > 32000 nM (inactive).
As for `COc1ccc(CNC(=O)CN2C(=O)NC(C)(c3cccc4ccccc34)C2=O)cc1OC` (stereo unspecified), the IC50 is 1170 nM.
For `CC(OC(=O)c1ccc(S(=O)(=O)C(F)F)cc1)C(=O)Nc1nc(-c2ccccc2)cs1` (stereo unspecified), the IC50 is > 32000 nM (inactive).
For `CCCc1cc(N2CCCC2)n2nc(C)c(-c3ccccc3)c2n1` the value was 700 nM; for `COc1ccc(C)cc1CN(C)C(=O)C(C)NC(=O)Cc1cccc2ccccc12` (stereo unspecified), 1050 nM; for `CCOc1ccc(CCNC(=O)CSc2cc(=O)n(C)c3ccccc23)cc1OCC`, 496 nM.
For the compound `CCOc1ccc(CN(C)C(=O)CNC(=O)Cc2cccc3ccccc23)cc1`, the IC50 was 168 nM.
With `CC(C)Oc1ccc(C(=O)OC(C)C(=O)Nc2nc(-c3cccc([N+](=O)[O-])c3)cs2)cc1` (stereo unspecified), the IC50 was 106 nM.
For the compound `COc1ccc(C(=O)OC(C)C(=O)Nc2cc(C(F)(F)F)ccc2Cl)c(OC)c1OC` (stereo unspecified), the IC50 was 439 nM.
With `CCCc1cc(N2CCOCC2)n2ncc(-c3ccccc3)c2n1`, the IC50 is 2500 nM.
As for `Cc1ccc(-n2nc3c(=O)n(CC(=O)NC(C)CCc4ccccc4)nc(C)c3c2C)cc1` (stereo unspecified), the figure is 413 nM; as for `COc1cc2c(cc1OC)CN(C(=O)CNC(=O)Cc1cccc3ccccc13)CC2`, 469 nM; as for `CCOc1ccc(CCNC(=O)Cn2cccc2C(=O)c2ccccc2)cc1OCC`, 424 nM.
Turning to `CC(Sc1nnc(Nc2ccccc2)s1)C(=O)Nc1nc(-c2ccccc2)cs1` (stereo unspecified), the IC50 was 3680 nM.
Regarding `CCOc1ccc(CCNC(=O)c2cc(-c3ccccc3)c(N3CCOCC3)s2)cc1OCC`, the concentration for half-maximal inhibition (IC50) is less than 62.5 nM.
As to `O=C(Cc1cccc2ccccc12)NCC(=O)N1CCc2ccccc2C1`, the IC50 was > 32000 nM (inactive).
As for `CCc1ccc(NC(=O)CCC(=O)Nc2cc(OC)c(NC(=O)c3cccs3)cc2OC)cc1`, the figure is 336 nM; as for `CCOc1ccc(CCNC(=O)CCC(=O)N2CCSc3ccccc32)cc1OCC`, 81.7 nM.
With `CCOc1ccc(C(=O)OCC(=O)Nc2cc(C)on2)cc1OCC`, the IC50 is 864 nM.
In the case of `CCOc1ccc(CCNC(=O)CCOc2cc(C)ccc2C)cc1OCC`, the IC50 is 102 nM.
Turning to `Cc1nn2c(N3CCOCC3)cc(C(C)(C)C)nc2c1-c1ccc(Cl)cc1`, the IC50 was > 32000 nM (inactive).
Consider `COc1ccc(CN(C)C(=O)CNC(=O)Cc2cccc3ccccc23)c(OC)c1`, for which the IC50 is 2990 nM.
For `COc1cc(OC)cc(C(=O)NCC(=O)NC(C)CCc2ccccc2)c1` (stereo unspecified), the IC50 is > 32000 nM (inactive).
For `CC(OC(=O)c1ccc(O)cc1)C(=O)Nc1nc(-c2ccccc2)cs1` (stereo unspecified) the value was > 32000 nM (inactive).
As for `Cc1cc(N2CCOCC2)n2nc(C)c(-c3ccccc3)c2n1`, the IC50 is 217 nM.
As to `Cc1ccc(-c2cnn3c(N4CCOCC4)cc(C)nc23)cc1`, the IC50 was 10600 nM (inactive).
As to `COc1ccc(-c2csc(NC(=O)c3ccc(OCC(=O)N4CCOCC4)c(OC)c3)n2)cc1`, the IC50 was 475 nM.
In the case of `COc1ccc(CN(C)C(=O)CNC(=O)Cc2cccc3ccccc23)c(OC)c1OC`, the IC50 was 2350 nM.
As for `COc1cc(NC(=O)c2cccs2)c(OC)cc1NC(=O)CCC(=O)Nc1cccc2ncccc12`, the figure is 4500 nM; as for `O=C(CNC(=O)c1cccc(Br)c1)NCCCc1ccccc1`, > 32000 nM (inactive); as for `CCOc1ccc(CCNC(=O)CCc2nnc3ccc(N4CCCC4)nn23)cc1OCC`, 922 nM.
As for `CCOc1ccccc1C(=O)NCC(=O)NCCCc1ccccc1`, the figure is > 32000 nM (inactive); as for `CCOc1ccc(CCNC(=O)c2nnc(Cc3ccc(F)cc3)o2)cc1OCC`, 543 nM; as for `CCOc1ccc(CCNC(=O)COC(=O)c2cc(OC)c(OC)c(OC)c2)cc1OCC`, 103 nM.
Consider `COc1ccc(CCNC(=O)Nc2ccccc2C#N)cc1OC`, for which the IC50 was > 32000 nM (inactive).
For `CCOc1ccccc1NC(=O)CCC(=O)Nc1ccccc1OCC` the value was 1540 nM.
Regarding `CCOc1ccc(CN(C)C(=O)CNC(=O)c2ccc3ccccc3c2)cc1OC`, the IC50 was 402 nM.
Take `COc1ccc(CCNC(=O)Nc2ccc(F)cc2F)cc1OC`: the IC50 was > 32000 nM (inactive).
As for `CCOc1ccc(C(=O)OC(C)C(=O)Nc2nc(-c3ccc(CC)cc3)cs2)cc1OCC` (stereo unspecified), the IC50 was less than 62.5 nM.
As for `COc1cc(NC(=O)c2cccs2)c(OC)cc1NC(=O)CCC(=O)Nc1cc(C)cc(C)c1`, the figure is 87 nM; as for `Cc1ccccc1C(=O)NCC(=O)NCCC(c1ccccc1)c1ccccc1`, > 32000 nM (inactive).
As for `CC1CCCN(C(=O)c2ccc3c(c2NCCO)C(=O)c2ccccc2C3=O)C1` (stereo unspecified), the figure is 2250 nM; as for `Cc1ccc(C(=O)NCC(=O)NCCCc2ccccc2)cc1`, > 32000 nM (inactive); as for `CCOc1cc2c(cc1OCC)C(c1ccccc1)N(c1ccccc1)C(=O)C2` (stereo unspecified), 287 nM.
As for `CCOc1ccc(CCNC(=O)CSc2cc(=O)n(C)c3cc(Cl)ccc23)cc1OCC`, the IC50 was > 32000 nM (inactive).
As for `COc1cccc(NC(=O)CCC(=O)Nc2cc(OC)c(NC(=O)c3cccs3)cc2OC)c1`, the figure is 197 nM; as for `CCOc1ccc(C(=O)OCC(=O)Nc2nc(OC)cc(OC)n2)cc1OCC`, 591 nM.
In the case of `CCN(CC)S(=O)(=O)c1ccc(C(=O)NCC(=O)NCCCc2ccccc2)cc1`, the IC50 was > 32000 nM (inactive).
As to `CC(OC(=O)c1cccc([N+](=O)[O-])c1)C(=O)Nc1nc(-c2ccccc2)cs1` (stereo unspecified), the IC50 was > 32000 nM (inactive).
Regarding `COc1cc(NC(=O)c2cccs2)c(OC)cc1NC(=O)CCC(=O)Nc1c(C)cccc1C`, the IC50 is 2200 nM.
As for `CCOc1ccc(CCNC(=O)Nc2ccccc2C)cc1OCC`, the concentration for half-maximal inhibition (IC50) is 826 nM.
`COc1ccc(-c2csc(NC(=O)c3ccc(OCC(=O)N4CCOCC4)c(OC)c3)n2)cc1OC`: the IC50 was 1020 nM.
Turning to `COc1ccc(CCNC(=O)Nc2ccccc2Cl)cc1OC`, the IC50 is > 32000 nM (inactive).
For `COc1ccc(CCNC(=O)Nc2ccccc2C(F)(F)F)cc1OC` the value was > 32000 nM (inactive); for `COc1ccc(Br)cc1CN(C)C(=O)CNC(=O)Cc1cccc2ccccc12`, 2080 nM; for `CCOc1ccc(CCNC(=O)Cn2nc(C)c3c(C)n(-c4ccccc4)nc3c2=O)cc1OCC`, 336 nM.
For the compound `CCOc1cc(CNC(=O)CCCn2c(=O)c3cccn3c3cccnc32)cc(OCC)c1OCC`, the half-inhibitory concentration (IC50) was 220 nM.
Regarding `CCOc1ccc(CCNC(=O)Cn2ncn3nc(-c4ccc(OC)cc4)cc3c2=O)cc1OCC`, the IC50 is 121 nM.
For `CCOc1ccc(CCNC(=O)Nc2ccccc2)cc1OCC` the value was 257 nM; for `COc1ccc(NC(=O)CCC(=O)Nc2cc(OC)c(NC(=O)c3cccs3)cc2OC)cc1`, 635 nM.
Take `O=C(Nc1nc(-c2ccc(-c3ccccc3)cc2)cs1)C1CCCO1` (stereo unspecified): the IC50 was 1100 nM.
Turning to `CCOc1ccc(CCNC(=O)COC(=O)c2cc(OC)cc(OC)c2)cc1OCC`, the IC50 is 736 nM.
As for `CC1CC(C)CN(C(=O)c2ccc3c(c2NCCO)C(=O)c2ccccc2C3=O)C1` (stereo unspecified), the figure is 782 nM.
